Measured values: US7271239B2, “D-isomers of antimicrobial peptide” (The Research Foundation of State University of New York, priority 2004, dated 2007)
Read-outs that look alike come from different tables or passages of the source.

Experiments:
[1] = test system: HOK-16B cells; test: MTS cell viability assay; format: cell-based, human
Protocol: FIG. 6. Effect of peptides on viability of (A) HOK-16B cells and (B) KB cells. The toxic effect of the compounds on the cells was determined by calorimetric assay using a CellTiter 96 AQueous One Solution cell proliferation assay (MTS) kit, as described in the text. Briefly, the cells were grown to about 80% confluence, harvested, washed, resuspended in KGM, and dispensed into a 96-well microtiter plate. They were then exposed to different concentrations of peptides or amphotericin B at 37° C. and 5% CO2 for 1.5 h. MTS agent was then added to each well, and the cells were further incubated for 4 h. Absorbance at 490 nm was then measured using a microplate reader. MTS reduction is an indication of cell viability. The viability is expressed as relative absorbance (percentage of no-agent control). Data represent the average and standard deviation of results from two independent experiments.
Cell culture. The HOK-16B cell line (originated from primary normal human keratinocytes) was kindly provided by No-Hee Park, UCLA School of Dentistry. The KB cell line was obtained from the American Type Culture Collection (CLL-17). […]
MTS cell viability assay. The toxic effect of the compounds on the cells was determined by calorimetric assay using a CellTiter 96 AQueous One Solution cell proliferation assay (MTS) kit (Promega, Wis.). […] Absorbance at 490 nm was then measured using a microplate reader. […]

[2] = test system: C. albicans strain DIS; format: in vivo, mice ICR strain; conditions: for Log10 cfu/ml (Mean + S.D.), Initial infection: before treatment (baseline)
Protocol: A previously described protocol was adopted (14). Mice were immunosuppressed with two subcutaneous injections of prednisolone at a dose of 100 mg/kg body weight 1 day prior to and 3 days after the infection with C. albicans. Tetracycline hydrochloride in drinking water at a concentration of 0.83 mg/ml was given to mice beginning 1 day before infection. Mice were anesthetized by intramuscular injection with 60 μl of 2 mg/ml chlorpromazine chloride, using a dose of 10 mg/kg body weight of mice. While under anesthesia, a small cotton ball soaked in 0.1 ml aliquot of C. albicans cell suspension (2.5×10^6 cells) was used to swab the entire oral cavity of the anesthetized mice.
Visual evaluation was done by carefully extending the tongue of randomly picked mice using blunt-end forceps, while the mice were under isoflurane sedation. Presence of thick, white curd-like patches indicated candidal infection. At day 3 post-infection, all animals were examined for evidence oral candidal infection by microbiological evaluation. The entire oral cavity of anesthetized mice was swabbed using a sterile calcium alginate disposable swab (Fisher Scientific), dampened with sterile PBS. Cells were then released from the swab into 1 ml PBS. Serial 10-fold dilutions were plated on SDA plates supplemented with streptomycin (30 μg/ml). Plates were incubated for 24 h at 37° C. and yeast cell count expressed as log10 of cfu/ml.
Tongues from sacrificed animals were used for histological studies. They were fixed in 10% formalin and embedded in paraffin. Serial five-μm sections were cut from the paraffin block and stained with periodic acid-Schiff (PAS) reagent for detection of C. albicans.
Mice were randomly divided into various treatment groups with 8 mice per group. Antifungal agents were employed on an equimolar basis, and included amphotericin B (1.75%), clotrimazole (0.66%), MUC7 12-mer (RKSYKCLHKRCR—SEQ ID NO:1) (L; 3%), MUC7 12-mer (D; 3%), MUC7 12-mer (D; 3%) containing Na2EDTA (1 mM), MUC7 12-mer (L; 3%) containing protease inhibitor cocktail (PIC) (1%), and Hsn5 12-mer (AKRHHGYKRKFH—SEQ ID NO:2) (3%). They were all emulsified in Pluronic F127, (20% lipoil), a polymer of polyoxyethylene and polyoxypropylene (non-ionic surfactant). Animals were anesthetized using isoflurane; while sedated, about 30 to 40 μl of the antifungal emulsion was applied on the tongue and spread throughout oral cavity. The treated mice were under sedation for additional 5 min under isoflurane. Animals were not given access to food and water for 1 h following the application.
Fungal burden was re-evaluated quantitatively after 3 and 6 days of treatment, using the same technique as the one used for initial evaluation. Randomly picked mice from each group was subjected to histopathological evaluation, after 6 days of treatment. Blood from randomly sacrificed mice from each treatment group was analyzed for any changes in the serum liver (AST, ALT, ALP etc.) and kidney enzymes (BUN, glucose, creatinine etc) levels.
Statistical analysis was performed using a significance level set at 0.05 (α) and a significant group size (n=8). Initial infection and antifungal treatment efficacy were determined using analysis of variance (ANOVA), expressed as log10 cfu, and Scheffe's multiple comparison test was used to determine the differences between various treatment groups.

[3] = Experimental study I, topical oral application

## C[C@@H]1[C@H](O)[C@@H](C)/C=C/C=C/C=C/C=C/C=C/C=C/C=C/[C@H](O[C@@H]2O[C@H](C)[C@@H](O)[C@H](N)[C@@H]2O)C[C@@H]2O[C@](O)(C[C@@H](O)C[C@@H](O)[C@H](O)CC[C@@H](O)C[C@@H](O)CC(=O)O[C@H]1C)C[C@H](O)[C@H]2C(=O)O [Amphotericin B]
[1]
  IC50: 100 µM
[2]; Experimental study I, day 3 post-infection
  Log10 cfu/ml (Mean + S.D.), Initial infection: 4.52 ± 0.15 Log10 cfu/ml
[2]; [3]
  Log10 cfu/ml (Mean + S.D.), 3-days treatment: 1.79 ± 1.16 Log10 cfu/ml
  Log10 cfu/ml (Mean + S.D.), 6-days treatment: 0.75 ± 1.04 Log10 cfu/ml
[2]; Experimental study II
  Log10 cfu/ml (Mean + S.D.), 3-days treatment: 1.23 ± 1.44 Log10 cfu/ml
  Log10 cfu/ml (Mean + S.D.), Initial infection: 4.26 ± 0.54 Log10 cfu/ml
[2]; end of treatment
  histopathological finding in tongue sections (C. albicans, PAS staining): healthy tissue and absence of visible microorganisms
